Like-named read-outs stand apart in the source and are kept apart here. One block for each compound: values may come before it. *1 amine or outer side, *2 acyl side, *3 side chain or, on linkers, in order; H or OH if unused. Where a SMILES comes first, the peptide text is derived from it. Bridges are numbered along the chain shown (N, C = ends). CH2 = C([*:1])[*:2]
What was measured:
[1] = tested on: TAP01 antibody; experiment: Proline mutated peptide binding to TAP01 antibody using Biacore T200; design: species or system mouse; conditions: Biacore T200, FIG. 23
[2] = tested on: 4-42 amyloid peptide; conditions: sera after immunisation with disulphide bridged peptide, ELISA
Experimental: • 1. […] Wash the plate (NUNC 384 program) • 4. […] Wash the plate (NUNC 384 program) • 7. […] Incubate at 37° C. for 1 hour • 13. Wash the plate (NUNC 384 program) • 14.

[3] = tested on: disulphide bridged 1-14 cyclic peptide 3, 12; conditions: mouse 5 (best immune response), FIG. 8
Experimental: • 1. […] Incubate at 4° C. overnight • 3. Wash the plate (NUNC 384 program) • 4. […] Incubate at RT for 1 hour • 6. Wash the plate (NUNC 384 program) • 7. […] Incubate at 4° C. overnight • 9. Wash the plate (NUNC 384 program) • 10.

[4] = tested on: pE3-42 amyloid peptide; experiment: Immunisation with disulphide bridged peptide, sera pE3-42 peptide binding ELISA; type: in vivo, mice and rabbits; conditions: sera after immunisation with disulphide bridged peptide
Experimental: • 1. Coat 384-well plate with 30 μL/well of 100 ng/ml PSL amyloid 1-42 peptide (Human-Peptide Specialty Laboratories-CEM1904161) diluted in carb/bicarb buffer • 2. Incubate at 37° C. for 1 hour • 3. Wash the plate (NUNC 384 program) • 4. […] Incubate at 4° C. overnight • 6. Wash the plate (NUNC 384 program) • 7. […] Transfer 30 μL/well onto the assay plate • 10. Incubate at 37° C. for 1 hour • 11. Wash the plate (NUNC 384 program) • 12. […] Incubate at 37° C. for 1 hour • 14. Wash the plate (NUNC 384 program) • 15. […] Incubate at RT for 10 min in the dark • 17. […] Coat 384-well plate with 30 μL/well of 100 ng/ml PSL amyloid pE3-42 peptide (Human-Peptide Specialty Laboratories-CEM062210 Pyr) diluted in carb/bicarb buffer • 2. Incubate at 37° C. for 1 hour • 3. Wash the plate (NUNC 384 program) • 4. […] Incubate at 4° C. overnight • 6. Wash the plate (NUNC 384 program) • 7. […] Transfer 30 μL/well onto the assay plate • 10. Incubate at 37° C. for 1 hour • 11. Wash the plate (NUNC 384 program) • 12. […] Incubate at 37° C. for 1 hour • 14. Wash the plate (NUNC 384 program) • 15. […] Incubate at RT for 10 min in the dark • 17.

[5] = molecular target: TAP01 (MoG1K) antibody; experiment: Thioacetal bridged cyclic peptide binding ELISA with TAP01 antibody; design: species or system mouse
Experimental: (§1) • 1. […] Incubate at 4° C. overnight • 3. Wash the plate (NUNC 384 program) • 4. […] Incubate at RT for 1 hour • 6. Wash the plate (NUNC 384 program) • 7. […] Incubate at 4° C. overnight • 9. Wash the plate (NUNC 384 program) • 10. […] Transfer 30 μL/well onto the assay plate • 12. Incubate at 37° C. for 1 hour • 13. Wash the plate (NUNC 384 program) • 14. […] Incubate at 37° C. for 1 hour 16. Wash the plate (NUNC 384 program) 17. […] Incubate at RT for 10 min in the dark 19.
(§2) Binding to comparators antibodies was also assessed.
(§3) Binding to comparator antibodies was also assessed (FIG. 26).

[6] = tested on: Bapineuzumab; experiment: Cyclic peptide binding ELISA with comparator antibody Bapineuzumab
Experimental: as §1, §2, §3

[7] = tested on: BAN2401; experiment: Cyclic peptide binding ELISA with comparator antibody BAN2401; conditions: FIGS. 7, 22
Experimental: as §1
(§4) Binding of the TAP01 antibody has been assessed to these thioacetal bridged cyclic peptide variants by ELISA (FIGS. 20-22 and Table 5). Binding to comparators antibodies was also assessed.

[8] = tested on: thioacetal bridged 1-14 cyclic peptide 3,12; experiment: Immunisation with thioacetal bridged peptide, sera binding ELISA to thioacetal bridged cyclic peptide; type: in vivo, rabbits and mice
Experimental: as §1

[9] = tested on: ProBioDrug 24_2_3; experiment: Cyclic peptide binding ELISA with comparator antibody ProBioDrug 24_2_3; conditions: FIG. 7
Experimental: (§5) • 1. […] Incubate at 4° C. overnight • 3. Wash the plate (NUNC 384 program) • 4. […] Incubate at RT for 1 hour • 6. Wash the plate (NUNC 384 program) • 7. […] Incubate at 4° C. overnight • 9. Wash the plate (NUNC 384 program) • 10. […] Transfer 30 μL/well onto the assay plate • 13. Incubate at 37° C. for 1 hour • 14. Wash the plate (NUNC 384 program) • 15. […] Incubate at 37° C. for 1 hour • 17. Wash the plate (NUNC 384 program) • 18.
as §1
(§6) ProBioDrug 6_1_6 (Deposit No. DSM ACC 2924) and ProBioDrug 24_2_3 (Deposit No. DSM ACC 2926) are described in […].

[10] = tested on: biotinylated cyclised peptide; experiment: Sera of actively immunised 5XFAD and Tg4-42 mice, binding ELISA to cyclised peptide; type: in vivo, mouse; conditions: FIGS. 32 and 33
Experimental: as §1
Animals (SXFAD and Tg4-42 mice) were immunised with thioacetal bridged cyclic peptide 1-14 and sera were screened for binding to biotinylated cyclised peptide as previously described above.

[11] = Stability comparison of both versions of the constrained cyclic peptide; type: physicochemical; conditions: listed as thioacetal bridged peptide
[12] = tested on: Solanezumab; experiment: Cyclic peptide binding ELISA with comparator antibody Solanezumab; conditions: FIGS. 7, 22
Experimental: as §1, §4

[13] = tested on: ProBioDrug 6_1_6; experiment: Cyclic peptide binding ELISA with comparator antibody ProBioDrug 6_1_6; conditions: FIG. 7
Experimental: as §5, §1, §6

Compound: DAPFRHDSGYEVHH (Residue 3 (E to P))
binding to TAP01 antibody [1]: no binding observed

Compound: DA*CFRHDSGYE*CHH-Biotin (*S—S* bridge) [1-14 cyclic peptide (disulphide bridged)]
sera binding to 4-42 amyloid peptide [2]: Minimal binding
serum titre to the disulphide bridged cyclic peptide [3]: 1/3200
sera binding to pE3-42 amyloid peptide [4]: Minimal binding

Compound: CC(C)[C@H](NC(=O)[C@H](CCC(=O)O)NC(=O)[C@@H]1CSCSC[C@H](N)C(=O)N[C@@H](C)C(=O)N[C@@H](CCC(=O)O)C(=O)N[C@@H](Cc2ccccc2)C(=O)N[C@@H](CCCNC(=N)N)C(=O)N[C@@H](Cc2c[nH]cn2)C(=O)N[C@@H](CC(=O)O)C(=O)N[C@@H](CO)C(=O)NCC(=O)N1)C(=O)N[C@@H](Cc1c[nH]cn1)C(=O)N[C@@H](Cc1c[nH]cn1)C(=O)O [1, 10] (H-CAEFRHDSGCEVHH-OH; linker 1-10 via CH2; N-terminus and C-terminus assumed)
EC50 ([5]; TAP01 (MoG1K) binding to thioacetal bridged cyclic peptide variants, Table 7, read-out: EC50): 12 nM

Compound: CC(C)[C@H](NC(=O)[C@H](CCC(=O)O)NC(=O)[C@@H]1CSCSC[C@H](N)C(=O)N[C@@H](C)C(=O)N[C@@H](CCC(=O)O)C(=O)N[C@@H](Cc2ccccc2)C(=O)N[C@@H](CCCNC(=N)N)C(=O)N[C@@H](Cc2c[nH]cn2)C(=O)N[C@@H](CC(=O)O)C(=O)N[C@@H](CO)C(=O)NCC(=O)N1)C(=O)N[C@@H](Cc1c[nH]cn1)C(=O)N[C@@H](Cc1c[nH]cn1)C(=O)O [Peptide 1, 10] (H-CAEFRHDSGCEVHH-OH; linker 1-10 via CH2; N-terminus and C-terminus assumed)
EC50 ([5]; TAP01 (MoG1K), FIG. 25, unit inferred, read-out: calculated EC50 value): 12 nM
binding to comparator antibody Bapineuzumab ([6]; FIGS. 7, 22, 26, 34): Binding to the comparator antibody Bapineuzumab was seen

Compound: DAC*FRHDSGYEC*HH-[Cys]- amide (*S—CH2—S* bridged) [1-14 cyclic peptide (thioacetal bridged)]
binding to comparator antibody BAN2401 [7]: None of the comparator antibodies tested were able to bind
binding of TAP01 to the cyclic peptide (hairpin epitope) ([5]; FIG. 7): able to bind
binding to comparator antibody Bapineuzumab ([6]; FIGS. 7, 22, 26, 34): None of the comparator antibodies tested were able to bind
titres of response compared with disulphide bridged peptide ([8]; mice): higher titres
serum titre to thioacetal bridged cyclic peptide ([8]; mice 3 and 4, FIG. 13): 1/24300
serum titre to thioacetal bridged cyclic peptide ([8]; mouse 2, FIG. 13): 1/72900
immune response after immunisation ([8]; rabbits and mice, FIG. 13): immune response was generated
binding to comparator antibody ProBioDrug 24_2_3 [9]: None of the comparator antibodies tested were able to bind
immune response, sera binding to biotinylated cyclised peptide [10]: good immune response
stability compared with disulphide bridged cyclic peptide [11]: more chemically stable
binding to comparator antibody Solanezumab [12]: None of the comparator antibodies tested were able to bind
binding to comparator antibody ProBioDrug 6_1_6 [13]: None of the comparator antibodies tested were able to bind

Compound: PPPFRHDSGYEVHH (Residue 1, 2 and 3 (D to P and A to P and E to P))
binding to TAP01 antibody [1]: bind in a dose dependant manner

binding to comparator antibody BAN2401 [7]: low affinity
EC50 ([5]; TAP01 (MoG1K) binding to thioacetal bridged cyclic peptide variants, Table 5, read-out: EC50): 1.33 nM
binding to comparator antibody Bapineuzumab ([6]; FIGS. 7, 22, 26, 34): able to bind
binding to comparator antibody Solanezumab [12]: low affinity
Compound: CC(C)[C@H](NC(=O)[C@H](CCC(=O)O)NC(=O)[C@@H]1CSCSC[C@H](NC(=O)[C@@H](N)CC(=O)O)C(=O)N[C@@H](CCC(=O)O)C(=O)N[C@@H](Cc2ccccc2)C(=O)N[C@@H](CCCNC(=N)N)C(=O)N[C@@H](Cc2c[nH]cn2)C(=O)N[C@@H](CC(=O)O)C(=O)N[C@@H](CO)C(=O)NCC(=O)N1)C(=O)N[C@@H](Cc1c[nH]cn1)C(=O)N[C@@H](Cc1c[nH]cn1)C(=O)O [Peptide 2, 10] (H-DCEFRHDSGCEVHH-OH; linker 2-10 via CH2)
binding to comparator antibody Bapineuzumab ([6]; FIGS. 7, 22, 26, 34, listed as cyclic peptide 2, 10): Binding to the comparator antibody Bapineuzumab was seen

binding to TAP01 antibody [1]: bind in a dose dependant manner
Compound: PPEFRHDSGYEVHH (Residue 1 and 2 (D to P and A to P))
